Here are results for 3 compounds from publication PMC6407576, “Synthesis and evaluation of anticancer, antiphospholipases, antiproteases, and antimetabolic syndrome activities of some 3H-quinazolin-4-one derivatives” (Journal of Enzyme Inhibition and Medicinal Chemistry, 2019).

Apis mellifera bee venom (AmPLA2), sequence (P00630 34-167 limits assumed): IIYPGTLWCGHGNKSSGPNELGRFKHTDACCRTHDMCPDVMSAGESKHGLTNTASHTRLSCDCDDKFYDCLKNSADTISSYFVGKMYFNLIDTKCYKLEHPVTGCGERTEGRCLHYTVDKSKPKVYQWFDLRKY

The first series has as its target Apis mellifera bee venom (AmPLA2) (Apis mellifera, UniProt P00630). As to the kind of experiment: biochemical.
Conditions: not given
As for `Cc1nc2ccccc2c(=O)n1/N=C/c1ccc(-c2ccccn2)cc1` [Compound 8c, (E)-2-Methyl-3-[(4-pyridin-2-yl-benzylidene)-amino]-3H-quinazolin-4-one], the IC50 was 16.5 µM.
Consider `Cc1nc2ccc(Br)cc2c(=O)n1/N=C/c1ccc(-c2ccccn2)cc1` [Compound 8d, (E)-6-Bromo-2-methyl-3-[(4-pyridin-2-yl-benzylidene)-amino]-3H-quinazolin-4-one], for which the IC50 was 10.5 µM.
The compound `COc1cccc(/C=N/n2c(C)nc3ccccc3c2=O)c1[N+](=O)[O-]` [Compound 8e, (E)-3-[(3-Methoxy-2-nitro-benzylidene)-amino]-2-methyl-3H-quinazolin-4-one] had an IC50 of 22.5 µM.

For another series, the target named is Naja mossambica mossambica sPLA2 (NmPLA2). Briefly: In vitro antiphospholipase activity. In kind it is biochemical. To be noted: 20 min preincubation, lecithin substrate, pH 7.6.
Consider `Cc1nc2ccccc2c(=O)n1/N=C/c1ccc(-c2ccccn2)cc1` [Compound 8c, (E)-2-Methyl-3-[(4-pyridin-2-yl-benzylidene)-amino]-3H-quinazolin-4-one], for which the “mean IC50 against NmPLA2” value worked out at 7.60 ± 0.85 µg/mL.
The same measure, in the same setting: for `Cc1nc2ccc(Br)cc2c(=O)n1/N=C/c1ccc(-c2ccccn2)cc1` [Compound 8d, (E)-6-Bromo-2-methyl-3-[(4-pyridin-2-yl-benzylidene)-amino]-3H-quinazolin-4-one] the value was 6.55 ± 0.78 µg/mL; for `COc1cccc(/C=N/n2c(C)nc3ccccc3c2=O)c1[N+](=O)[O-]` [Compound 8e, (E)-3-[(3-Methoxy-2-nitro-benzylidene)-amino]-2-methyl-3H-quinazolin-4-one], 7.75 ± 0.35 µg/mL.

The target of a further series is T1, human group V (hG-V) sPLA2 (Homo sapiens, UniProt P39877).
T1 sequence (P39877 21-138): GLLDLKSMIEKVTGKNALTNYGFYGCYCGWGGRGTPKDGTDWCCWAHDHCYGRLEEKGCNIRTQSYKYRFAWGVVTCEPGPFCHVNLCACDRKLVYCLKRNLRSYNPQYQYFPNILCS
As to the kind of experiment: In vitro antiphospholipase activity. Format: biochemical. To be noted: 20 min preincubation, lecithin substrate, pH 7.6; read-out: mean IC50 against hG-V (converted).
On to `Cc1nc2ccccc2c(=O)n1/N=C/c1ccc(-c2ccccn2)cc1` [Compound 8c, (E)-2-Methyl-3-[(4-pyridin-2-yl-benzylidene)-amino]-3H-quinazolin-4-one], for which the IC50 was 30.8 µM.
Same read-out and setting: for `Cc1nc2ccc(Br)cc2c(=O)n1/N=C/c1ccc(-c2ccccn2)cc1` [Compound 8d, (E)-6-Bromo-2-methyl-3-[(4-pyridin-2-yl-benzylidene)-amino]-3H-quinazolin-4-one] the value was 22.3 µM; for `COc1cccc(/C=N/n2c(C)nc3ccccc3c2=O)c1[N+](=O)[O-]` [Compound 8e, (E)-3-[(3-Methoxy-2-nitro-benzylidene)-amino]-2-methyl-3H-quinazolin-4-one], 70.2 µM.

The target of the next series is xanthine oxidase (Homo sapiens, UniProt P47989). As to the kind of experiment: In vitro inhibition of xanthine oxidase. Format: biochemical.
xanthine oxidase, sequence (P47989 whole entry, species assumed): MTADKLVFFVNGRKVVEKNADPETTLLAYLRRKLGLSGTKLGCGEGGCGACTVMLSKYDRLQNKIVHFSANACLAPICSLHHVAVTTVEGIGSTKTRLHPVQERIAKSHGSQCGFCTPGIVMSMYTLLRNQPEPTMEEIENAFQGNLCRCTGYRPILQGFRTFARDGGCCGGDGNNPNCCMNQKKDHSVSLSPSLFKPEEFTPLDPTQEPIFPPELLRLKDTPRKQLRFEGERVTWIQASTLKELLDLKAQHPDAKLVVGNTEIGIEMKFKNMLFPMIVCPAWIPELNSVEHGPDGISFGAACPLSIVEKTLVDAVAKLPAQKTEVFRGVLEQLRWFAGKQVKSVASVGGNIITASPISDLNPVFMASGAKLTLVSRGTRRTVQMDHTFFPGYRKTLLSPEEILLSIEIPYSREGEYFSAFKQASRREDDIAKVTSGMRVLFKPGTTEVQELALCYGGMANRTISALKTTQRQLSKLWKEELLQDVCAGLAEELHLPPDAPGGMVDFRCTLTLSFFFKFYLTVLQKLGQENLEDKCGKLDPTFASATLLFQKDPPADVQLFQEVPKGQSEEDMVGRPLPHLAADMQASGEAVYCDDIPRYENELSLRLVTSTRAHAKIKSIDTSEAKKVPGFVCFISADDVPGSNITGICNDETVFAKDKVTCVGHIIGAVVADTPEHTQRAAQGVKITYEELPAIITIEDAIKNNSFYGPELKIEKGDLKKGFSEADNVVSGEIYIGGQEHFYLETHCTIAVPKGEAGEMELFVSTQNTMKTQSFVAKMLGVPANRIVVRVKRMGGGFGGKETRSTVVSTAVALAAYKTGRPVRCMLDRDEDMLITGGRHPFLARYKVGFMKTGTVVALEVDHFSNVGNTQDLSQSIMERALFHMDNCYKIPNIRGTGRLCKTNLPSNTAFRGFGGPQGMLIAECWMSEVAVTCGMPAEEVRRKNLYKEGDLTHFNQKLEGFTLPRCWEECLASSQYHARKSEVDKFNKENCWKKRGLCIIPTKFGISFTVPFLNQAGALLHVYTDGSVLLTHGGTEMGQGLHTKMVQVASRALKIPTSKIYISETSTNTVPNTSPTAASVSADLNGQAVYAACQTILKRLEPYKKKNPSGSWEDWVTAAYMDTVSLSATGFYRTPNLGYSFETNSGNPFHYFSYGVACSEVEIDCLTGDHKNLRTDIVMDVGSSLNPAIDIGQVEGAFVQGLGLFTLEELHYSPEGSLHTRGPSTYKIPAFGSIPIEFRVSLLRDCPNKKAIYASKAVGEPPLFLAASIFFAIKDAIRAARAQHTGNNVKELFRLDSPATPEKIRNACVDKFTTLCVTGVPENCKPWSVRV
Conditions: not given
Compound `Cc1nc2ccccc2c(=O)n1/N=C/c1ccc(-c2ccccn2)cc1` [Compound 8c, (E)-2-Methyl-3-[(4-pyridin-2-yl-benzylidene)-amino]-3H-quinazolin-4-one] showed an IC50 of 11.8 µM.
In turn, `Cc1nc2ccc(Br)cc2c(=O)n1/N=C/c1ccc(-c2ccccn2)cc1` [Compound 8d, (E)-6-Bromo-2-methyl-3-[(4-pyridin-2-yl-benzylidene)-amino]-3H-quinazolin-4-one] gave an IC50 of 23.9 µM.
On the same count and under the same terms, for `COc1cccc(/C=N/n2c(C)nc3ccccc3c2=O)c1[N+](=O)[O-]` [Compound 8e, (E)-3-[(3-Methoxy-2-nitro-benzylidene)-amino]-2-methyl-3H-quinazolin-4-one] the value was 102 µM.

Test system in a further series: not given
Assay: not given
Conditions: not given
As to `Cc1nc2ccccc2c(=O)n1/N=C/c1ccc(-c2ccccn2)cc1` [Compound 8c, (E)-2-Methyl-3-[(4-pyridin-2-yl-benzylidene)-amino]-3H-quinazolin-4-one], the melting point lay within 188 to 190 °C.
On to `Cc1nc2ccc(Br)cc2c(=O)n1/N=C/c1ccc(-c2ccccn2)cc1` [Compound 8d, (E)-6-Bromo-2-methyl-3-[(4-pyridin-2-yl-benzylidene)-amino]-3H-quinazolin-4-one], for which the melting point was in the range of 209 to 210 °C.
In the case of `COc1cccc(/C=N/n2c(C)nc3ccccc3c2=O)c1[N+](=O)[O-]` [Compound 8e, (E)-3-[(3-Methoxy-2-nitro-benzylidene)-amino]-2-methyl-3H-quinazolin-4-one], the melting point lay in the range of 178 to 180 °C.

In another series the target is thrombin (Homo sapiens, UniProt P00734). Briefly: In vitro antiprotease activity. Format: biochemical. To be noted: 15 min preincubation; read-out: mean IC50 against Thrombin (converted). The procedure:
(§1) The inhibitory effects of 21 3H-quinazolin-4-one derivatives on several available therapeutically important proteases such as cathepsin-B, collagenase, elastase, thrombin, and trypsin were investigated. […] The protease inhibitory activity was expressed as inhibition percentage, which was determined by comparison with a control experiment. The results were expressed as IC50 values that were determined from the standard curve. A protease inhibitor cocktail (Sigma) was used as the positive control.
As to `Cc1nc2ccccc2c(=O)n1/N=C/c1ccc(-c2ccccn2)cc1` [Compound 8c, (E)-2-Methyl-3-[(4-pyridin-2-yl-benzylidene)-amino]-3H-quinazolin-4-one], the IC50 was 69 µM.
Still for that read-out and setting: the figure for `Cc1nc2ccc(Br)cc2c(=O)n1/N=C/c1ccc(-c2ccccn2)cc1` [Compound 8d, (E)-6-Bromo-2-methyl-3-[(4-pyridin-2-yl-benzylidene)-amino]-3H-quinazolin-4-one] is 37 µM; for `COc1cccc(/C=N/n2c(C)nc3ccccc3c2=O)c1[N+](=O)[O-]` [Compound 8e, (E)-3-[(3-Methoxy-2-nitro-benzylidene)-amino]-2-methyl-3H-quinazolin-4-one] it is 4.43 µM.

In another series the target is T2, trypsin (Bos taurus, UniProt P00760).
T2 construct: gene PRSS1
T2 sequence (P00760 24-246): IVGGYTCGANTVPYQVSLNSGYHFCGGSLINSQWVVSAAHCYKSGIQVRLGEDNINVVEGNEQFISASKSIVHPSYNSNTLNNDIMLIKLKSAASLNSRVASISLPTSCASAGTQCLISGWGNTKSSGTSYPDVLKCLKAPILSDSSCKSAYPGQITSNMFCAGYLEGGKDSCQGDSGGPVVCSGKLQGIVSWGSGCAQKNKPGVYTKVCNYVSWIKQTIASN
Briefly: In vitro antiprotease activity. To be noted: 15 min preincubation; read-out: mean IC50 against Trypsin (converted). In kind it is biochemical. The protocol:
as §1
For the compound `Cc1nc2ccccc2c(=O)n1/N=C/c1ccc(-c2ccccn2)cc1` [Compound 8c, (E)-2-Methyl-3-[(4-pyridin-2-yl-benzylidene)-amino]-3H-quinazolin-4-one], the IC50 was 103 µM.
For `Cc1nc2ccc(Br)cc2c(=O)n1/N=C/c1ccc(-c2ccccn2)cc1` [Compound 8d, (E)-6-Bromo-2-methyl-3-[(4-pyridin-2-yl-benzylidene)-amino]-3H-quinazolin-4-one], the IC50 is 54.9 µM.
On to `COc1cccc(/C=N/n2c(C)nc3ccccc3c2=O)c1[N+](=O)[O-]` [Compound 8e, (E)-3-[(3-Methoxy-2-nitro-benzylidene)-amino]-2-methyl-3H-quinazolin-4-one], for which the IC50 is 2.51 µM.

The target of the next series is elastase. Briefly: In vitro antiprotease activity. Format: biochemical. To be noted: 15 min preincubation. The procedure:
as §1
Take `Cc1nc2ccccc2c(=O)n1/N=C/c1ccc(-c2ccccn2)cc1` [Compound 8c, (E)-2-Methyl-3-[(4-pyridin-2-yl-benzylidene)-amino]-3H-quinazolin-4-one]: the “mean IC50 against Elastase” value worked out at 32.00 ± 2.83 µg/mL.
`Cc1nc2ccc(Br)cc2c(=O)n1/N=C/c1ccc(-c2ccccn2)cc1` [Compound 8d, (E)-6-Bromo-2-methyl-3-[(4-pyridin-2-yl-benzylidene)-amino]-3H-quinazolin-4-one]: the “mean IC50 against Elastase” value amounted to 26.00 ± 1.41 µg/mL.
Still for that read-out and setting: the figure for `COc1cccc(/C=N/n2c(C)nc3ccccc3c2=O)c1[N+](=O)[O-]` [Compound 8e, (E)-3-[(3-Methoxy-2-nitro-benzylidene)-amino]-2-methyl-3H-quinazolin-4-one] is 1.25 ± 0.05 µg/mL.

A further series has as its target cathepsin-B (Homo sapiens, UniProt P07858). As to the kind of experiment: In vitro antiprotease activity. In kind it is biochemical. To be noted: 15 min preincubation; read-out: mean IC50 against Cathepsin-B (converted). The protocol: as §1
Turning to `Cc1nc2ccccc2c(=O)n1/N=C/c1ccc(-c2ccccn2)cc1` [Compound 8c, (E)-2-Methyl-3-[(4-pyridin-2-yl-benzylidene)-amino]-3H-quinazolin-4-one], the IC50 was 36.7 µM.
In the case of `Cc1nc2ccc(Br)cc2c(=O)n1/N=C/c1ccc(-c2ccccn2)cc1` [Compound 8d, (E)-6-Bromo-2-methyl-3-[(4-pyridin-2-yl-benzylidene)-amino]-3H-quinazolin-4-one], the IC50 is 82.3 µM.
As for `COc1cccc(/C=N/n2c(C)nc3ccccc3c2=O)c1[N+](=O)[O-]` [Compound 8e, (E)-3-[(3-Methoxy-2-nitro-benzylidene)-amino]-2-methyl-3H-quinazolin-4-one], the IC50 was 6.95 µM.

In the next series the target is collagenase. Briefly: In vitro antiprotease activity. To be noted: 15 min preincubation. In kind it is biochemical. The protocol: as §1
With `Cc1nc2ccccc2c(=O)n1/N=C/c1ccc(-c2ccccn2)cc1` [Compound 8c, (E)-2-Methyl-3-[(4-pyridin-2-yl-benzylidene)-amino]-3H-quinazolin-4-one], the “mean IC50 against Collagenase” value came out at 23.50 ± 0.71 µg/mL.
Consider `Cc1nc2ccc(Br)cc2c(=O)n1/N=C/c1ccc(-c2ccccn2)cc1` [Compound 8d, (E)-6-Bromo-2-methyl-3-[(4-pyridin-2-yl-benzylidene)-amino]-3H-quinazolin-4-one], for which the “mean IC50 against Collagenase” value came out at 3.00 ± 0.01 µg/mL.
Take `COc1cccc(/C=N/n2c(C)nc3ccccc3c2=O)c1[N+](=O)[O-]` [Compound 8e, (E)-3-[(3-Methoxy-2-nitro-benzylidene)-amino]-2-methyl-3H-quinazolin-4-one]: the “mean IC50 against Collagenase” value is 15.50 ± 2.12 µg/mL.

The next series concerns the target T3, human group IIA (hG-IIA) sPLA2 (Homo sapiens, UniProt P14555).
T3 sequence (P14555 21-144): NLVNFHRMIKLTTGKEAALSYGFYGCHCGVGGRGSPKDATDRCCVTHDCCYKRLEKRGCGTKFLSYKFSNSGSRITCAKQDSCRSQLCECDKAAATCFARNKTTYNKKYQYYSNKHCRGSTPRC
As to the kind of experiment: In vitro antiphospholipase activity. Format: biochemical.
Conditions: not given
In the case of `Cc1nc2ccccc2c(=O)n1/N=C/c1ccc(-c2ccccn2)cc1` [Compound 8c, (E)-2-Methyl-3-[(4-pyridin-2-yl-benzylidene)-amino]-3H-quinazolin-4-one], 22.2 µM corresponded to half-maximal inhibition (IC50).
Same read-out and setting: the figure for `Cc1nc2ccc(Br)cc2c(=O)n1/N=C/c1ccc(-c2ccccn2)cc1` [Compound 8d, (E)-6-Bromo-2-methyl-3-[(4-pyridin-2-yl-benzylidene)-amino]-3H-quinazolin-4-one] is 13.7 µM.
Regarding `COc1cccc(/C=N/n2c(C)nc3ccccc3c2=O)c1[N+](=O)[O-]` [Compound 8e, (E)-3-[(3-Methoxy-2-nitro-benzylidene)-amino]-2-methyl-3H-quinazolin-4-one], the IC50 was 49.1 µM.

The next series deals with T4, human group X (hG-X) sPLA2 (Homo sapiens, UniProt O15496).
T4 sequence (O15496 43-165): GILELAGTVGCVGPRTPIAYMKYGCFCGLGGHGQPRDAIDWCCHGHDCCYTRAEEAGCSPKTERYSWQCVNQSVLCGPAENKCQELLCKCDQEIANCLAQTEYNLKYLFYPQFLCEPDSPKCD
Briefly: In vitro antiphospholipase activity. In kind it is biochemical. To be noted: 20 min preincubation, lecithin substrate, pH 7.6; read-out: mean IC50 against hG-X (converted).
In the case of `Cc1nc2ccccc2c(=O)n1/N=C/c1ccc(-c2ccccn2)cc1` [Compound 8c, (E)-2-Methyl-3-[(4-pyridin-2-yl-benzylidene)-amino]-3H-quinazolin-4-one], the IC50 was 69.8 µM.
As for `Cc1nc2ccc(Br)cc2c(=O)n1/N=C/c1ccc(-c2ccccn2)cc1` [Compound 8d, (E)-6-Bromo-2-methyl-3-[(4-pyridin-2-yl-benzylidene)-amino]-3H-quinazolin-4-one], the IC50 was 15.7 µM.
As to `COc1cccc(/C=N/n2c(C)nc3ccccc3c2=O)c1[N+](=O)[O-]` [Compound 8e, (E)-3-[(3-Methoxy-2-nitro-benzylidene)-amino]-2-methyl-3H-quinazolin-4-one], the IC50 was 34.7 µM.
